{"source": "patent US20240165129A1", "about": "“METHODS OF TREATING PAIN AND DEPRESSION” (priority 2022, published 2024)"}
{"test_system": "primary cultured mouse cortical neurons", "details": "10 μM, pH 6.0, n=8"}
{"smiles": "C[C@@]12CCC[C@H]1[C@@H]1C[C@@H](O)[C@@]3(O)C[C@@H](O)CC[C@]3(C)[C@H]1CC2", "note": "[Andro-triol, 5α-androst-3β, 5, 6β-triol]", "protection against acid-induced neuronal injury (LDH release), analogs": "none of them shows significant protection"}
{"smiles": "CC(C)CCC[C@@H](C)[C@H]1CC[C@H]2[C@@H]3C[C@H]4O[C@]45C[C@@H](O)CC[C@]5(C)[C@H]3CC[C@]12C", "note": "[5β,6β-epoxy-Chol, 5β,6β-epoxycholesterol]", "protection against acid-induced neuronal injury (LDH release), analogs": "none of them shows significant protection"}
{"smiles": "CC(C)CCC[C@@H](C)[C@H]1CC[C@H]2[C@@H]3C[C@@H]4O[C@@]45C[C@@H](O)CC[C@]5(C)[C@H]3CC[C@]12C", "note": "[5α,6α-epoxy-Chol, 5α,6α-epoxycholesterol]", "protection against acid-induced neuronal injury (LDH release), analogs": "none of them shows significant protection"}
